Measurements: PubChem BioAssay (NCI)
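Protocol summary: plate cells (96-well), add compound at 5 concentrations, incubate 48 h, interpolate endpoints linearly. The concentration for full growth arrest is given as TGI.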 Where a SMILES comes first, the peptide text is derived from it. The star is where a group is joined. Fmoc = O=C(OCC1c2ccccc2-c2ccccc21)*; ONb = O=[N+]([O-])c1ccc(CO*)cc1; Boc = CC(C)(C)OC(=O)*

Tests used:
Assay in all cases: NCI tumour cell line growth inhibition, 48 h
[1] = tested on: ACHN renal
[2] = tested on: COLO 205 colon
[3] = tested on: HT29 colon
[4] = tested on: MDA-MB-435
[5] = tested on: MOLT-4 leukemia
[6] = tested on: NCI-H226 lung
[7] = tested on: NCI-H522 lung
[8] = tested on: SK-MEL-28 melanoma
[9] = tested on: SN12C renal
[10] = tested on: K-562 leukemia

| Structure (SMILES) | TGI [1] [µM] | TGI [2] [µM] | TGI [3] [µM] | TGI [4] [µM] | TGI [5] [µM] | TGI [6] [µM] | TGI [7] [µM] | TGI [8] [µM] | TGI [9] [µM] | TGI [10] [µM] |
| --- | --- | --- | --- | --- | --- | --- | --- | --- | --- | --- |
| Cc1ccc(OC2CC(n3cnc4ncnc(Cl)c43)OC2Oc2ccc(C)cc2)cc1 (centres undefined) | 10.5 | 46.5 | > 100 | > 100 | > 100 | 31 | > 100 | > 100 | > 100 | – |
| CC(C)(C)OC(=O)NCCCCC(NC(=O)OCC1c2ccccc2-c2ccccc21)C(=O)N1CCCC1C(=O)NCC(N)=O (stereo not drawn) (Fmoc-Lys(Boc)-Pro-Gly-NH2; configuration not given here) | 34.6 | 99.2 | > 100 | 84.8 | 77.3 | > 100 | – | > 100 | 30.2 | > 100 |
| CCOC(=O)c1ccc(C(=O)/C(C(C)=O)=C2\CCCN2C)n1C | > 100 | > 100 | – | > 100 | > 100 | > 100 | > 100 | > 100 | > 100 | > 100 |
| N#CCCC1(CCC#N)CCCCCCCCC(CCC#N)(CCC#N)C(=O)C1=O | > 100 | > 100 | > 100 | > 100 | – | > 100 | 88.2 | > 100 | > 100 | > 100 |
| O=C1/C(=C/c2cccc(Br)c2)CSC/C1=C\c1cccc(Br)c1 | 9.88 | 8.53 | 5.67 | – | – | – | 4.14 | 7.12 | 5.22 | 6.74 |
| COCOc1c(C(O[Si](C)(C)C(C)(C)C)c2cnc(Sc3ccccc3)n2C)ccc(OC)c1OC (centres undefined) | 6.98 | – | 4.15 | 3.26 | 8.95 | 4.14 | 3.58 | 4.18 | 3.31 | – |
| CN(C)c1nncc2[nH]cnc12 | > 100 | > 100 | > 100 | > 100 | > 100 | > 100 | – | > 100 | > 100 | > 100 |
| Cc1ccc(O)c(-c2cc(-c3cccc(Cl)c3)c(C#N)c(N)n2)c1 | 42.1 | 32.3 | 58.3 | 34.3 | 38.6 | 55.4 | 30 | – | 47.6 | 48.4 |
| Fc1ccc2nc3n(c2c1)C(c1c(Cl)cccc1Cl)SC3 (centres undefined) | > 100 | > 100 | > 100 | > 100 | > 100 | > 100 | > 100 | > 100 | > 100 | – |
| O=C(O)c1cn2c3c(cc(N4CCN(CCO)CC4)cc3c1=O)SCC2 | – | > 100 | > 100 | – | > 100 | > 100 | 94.2 | > 100 | > 100 | > 100 |
| O=C1/C(=C/c2ccccc2O)N=C(c2ccccc2)N1c1nc2ccccc2s1 | 64.3 | – | 74 | > 100 | 60.7 | 77.8 | 17.2 | > 100 | – | > 100 |
| COC(=O)C1=C(O)C(C(=O)OC)[C@]2(O)[C@H](C(=O)OC)[C@H]1C[C@@H](c1c(Cl)cccc1Cl)[C@H]2C(=O)OC (some centres undefined) | 4.86 | 4.37 | 7.16 | 3.3 | 5.31 | 4.87 | – | 7.55 | 5.2 | 6.92 |
| CC(C)C1=CCC2C(=C1)CCC1C(C)(C(=O)O)CCCC21C (centres undefined) (tested in a mixture with another compound) | > 100 | > 100 | > 100 | > 100 | > 100 | > 100 | > 100 | > 100 | > 100 | – |
| Cc1c2cnccc2c(C)c2c1c1ccccc1n2CCCCCCNCc1ccccc1 | – | 3.07 | 3.13 | – | 0.7 | – | 3.63 | 4.41 | 3.27 | 9.36 |
| CC(=O)N(O)[C@@H]1CC[C@H](n2cnc3c(N)ncnc32)C1 | > 100 | > 100 | – | > 100 | > 100 | > 100 | > 100 | > 100 | > 100 | > 100 |
| CN1C(=O)[C@@H]2[C@@H]3c4ccccc4N(S(=O)(=O)C(F)(F)F)[C@@H]3c3[nH]c4ccccc4c3[C@@H]2C1=O | > 100 | > 100 | > 100 | > 100 | 47 | > 100 | – | > 100 | > 100 | > 100 |
| CC(=O)OCC1OC(SC2OC(COC(C)=O)C(OC(C)=O)C(OC(C)=O)C2OC(C)=O)C(OC(C)=O)C(OC(C)=O)C1OC(C)=O (centres undefined) | > 100 | > 100 | > 100 | > 100 | > 100 | > 100 | – | > 100 | > 100 | > 100 |
| CC(C)[Si](OC1=CCC[C@H]2NC(=O)[C@@H](Cc3ccccc3)[C@@]12C)(C(C)C)C(C)C | 5.25 | 6.35 | 12.1 | 13.4 | 14.7 | – | 17.4 | 13.1 | 9.85 | 12.5 |
| CNC(=O)N(C)COC | > 100 | > 100 | > 100 | – | > 100 | > 100 | > 100 | > 100 | > 100 | – |
| O=C1CCCC/C1=C\c1ccc(Br)cc1 | 9.18 | 32.8 | – | 30.6 | 6.24 | – | 31.1 | 31.6 | 41.5 | 31.7 |
| CCCCNC(=S)Nc1nc(C(=O)NNC(=S)NC2CCCCC2)cs1 | > 100 | > 100 | > 100 | > 100 | – | > 100 | > 100 | – | > 100 | > 100 |
| CC(C)CC(NC(=O)OC(C)(C)C)C(=O)NC(CCC(=O)OCc1ccc([N+](=O)[O-])cc1)C(=O)OCc1ccc([N+](=O)[O-])cc1 (stereo not drawn) (Boc-Leu-Glu(ONb)-ONb; configuration not given here) | > 100 | > 100 | 94.7 | – | 39.8 | – | – | 30.9 | > 100 | 39.4 |
| CCOC(=O)Cc1nc2sc(S(N)(=O)=O)nn2c1Br | 93.3 | > 100 | 45.1 | > 100 | – | 73 | 39.5 | 96.2 | 52.5 | > 100 |
| N#CCCN(CCC#N)c1ccc(/C=C2\N=C(c3ccccc3)N(NC(N)=S)C2=O)cc1 | > 100 | > 100 | > 100 | > 100 | > 100 | > 100 | – | > 100 | > 100 | > 100 |
